Read-outs that look alike come from different tables or passages of the source.

One may read the half-life as the time needed for the level to fall by half in the phase considered. By IC50 is commonly meant the concentration that inhibits the measured activity by half. As a reminder, the Ki is the equilibrium dissociation constant of an inhibitor or competing ligand from its target.

The nature of series [1]: Ocular tissue distribution of ketorolac after intracameral OMS302 during IOL replacement in dogs. In kind it is in vivo, female beagles. The protocol: This example describes the results of an in vivo study in dogs to determine the concentrations of ketorolac in the retina and other ocular tissues following the intracameral administration of phenylephrine 1% and ketorolac 0.3% injection formulated as described in Table 1 (OMS302) during IOL replacement in dogs.
(§1) IOL replacement by phacoemulsification was performed on 20 female beagles. During the procedure, OMS302 was administered in BSS solution via irrigation and intracameral injection immediately post-procedure. The target dose level of ketorolac was 5.71 mg/eye, and the target dose volume of OMS302 diluted in BSS solution was […] per eye. Four animals per time point were sacrificed at 0, 2, 6, 8, and 10 hours post-procedure. Samples of blood and aqueous humor were collected. Enucleated eyes were frozen and dissected for collection of retina, retinal pigmented epithelium-choroid, cornea, iris-ciliary body, vitreous humor, sclera, and lens capsule. Tissue concentrations of ketorolac were quantitated using a liquid chromatography/mass spectrometry (LCMS) method. Using published IC50 values for cyclooxygenase (COX) inhibition by ketorolac (Waterbury, et. al., Curr Med Res Opin 22(6):1133-40 (2006)), estimates of percent inhibition were derived for each time point.

The subject of series [2] is COX-1. In words: Estimated percent inhibition of COX-1 from tissue ketorolac concentrations in dogs. It is filed as in vivo, female beagles. The following applies: for estimated COX-1 inhibition: retina. The protocol:
as §1

Series [3] has as its system COX-2. In words: Estimated percent inhibition of COX-2 from tissue ketorolac concentrations in dogs. It is filed as in vivo, female beagles. The following applies: for estimated COX-2 inhibition: retina. As for the experimental part: IOL replacement by phacoemulsification was performed on 20 female beagles. During the procedure, OMS302 was administered in BSS solution via irrigation and intracameral injection immediately post-procedure. […] Four animals per time point were sacrificed at 0, 2, 6, 8, and 10 hours post-procedure. Samples of blood and aqueous humor were collected. Enucleated eyes were frozen and dissected for collection of retina, retinal pigmented epithelium-choroid, cornea, iris-ciliary body, vitreous humor, sclera, and lens capsule. Tissue concentrations of ketorolac were quantitated using a liquid chromatography/mass spectrometry (LCMS) method.

The conditions of series [4]: human, in vivo.
Text: Patients undergoing cataract extraction and lens replacement (CELR) were eligible. Written informed consent was obtained from 14 subjects, each of whom received topical ophthalmic ketorolac according to the surgeon's usual practice, beginning one day preoperatively. Immediately prior to the initial surgical incision, the surgeon withdrew a 100-μL sample of aqueous humor from the operative eye with a 30-gauge tuberculin syringe. At the conclusion of CELR prior to final re-inflation of the anterior chamber and wound closure, the surgeon withdrew another 100-μL sample from the anterior chamber. The ketorolac concentrations of the intracameral fluid samples were analyzed by an analytical laboratory.
Series [5] deals with COX-1 (Homo sapiens, UniProt P23219). As to conditions: cited from earlier work.
COX-1 (Homo sapiens, UniProt P23219), sequence (P23219 24-599): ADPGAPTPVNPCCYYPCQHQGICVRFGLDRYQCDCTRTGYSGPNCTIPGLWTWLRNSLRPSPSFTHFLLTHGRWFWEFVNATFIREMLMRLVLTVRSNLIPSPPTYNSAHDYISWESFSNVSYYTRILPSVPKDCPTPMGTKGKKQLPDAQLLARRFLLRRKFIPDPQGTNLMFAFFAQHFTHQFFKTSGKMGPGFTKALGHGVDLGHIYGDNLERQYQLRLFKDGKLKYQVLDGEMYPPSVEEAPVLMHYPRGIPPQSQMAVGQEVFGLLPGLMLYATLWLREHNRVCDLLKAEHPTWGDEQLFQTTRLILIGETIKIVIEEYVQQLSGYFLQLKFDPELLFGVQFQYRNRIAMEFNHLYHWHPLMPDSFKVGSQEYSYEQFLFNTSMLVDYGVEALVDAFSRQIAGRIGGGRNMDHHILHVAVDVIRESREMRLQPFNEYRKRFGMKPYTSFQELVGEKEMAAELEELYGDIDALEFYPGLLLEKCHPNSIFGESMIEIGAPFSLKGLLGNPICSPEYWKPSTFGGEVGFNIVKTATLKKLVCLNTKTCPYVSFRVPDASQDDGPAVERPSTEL
For series [6], the target named is T1, COX-2 (Homo sapiens, UniProt P35354).
T1 sequence (P35354 18-604): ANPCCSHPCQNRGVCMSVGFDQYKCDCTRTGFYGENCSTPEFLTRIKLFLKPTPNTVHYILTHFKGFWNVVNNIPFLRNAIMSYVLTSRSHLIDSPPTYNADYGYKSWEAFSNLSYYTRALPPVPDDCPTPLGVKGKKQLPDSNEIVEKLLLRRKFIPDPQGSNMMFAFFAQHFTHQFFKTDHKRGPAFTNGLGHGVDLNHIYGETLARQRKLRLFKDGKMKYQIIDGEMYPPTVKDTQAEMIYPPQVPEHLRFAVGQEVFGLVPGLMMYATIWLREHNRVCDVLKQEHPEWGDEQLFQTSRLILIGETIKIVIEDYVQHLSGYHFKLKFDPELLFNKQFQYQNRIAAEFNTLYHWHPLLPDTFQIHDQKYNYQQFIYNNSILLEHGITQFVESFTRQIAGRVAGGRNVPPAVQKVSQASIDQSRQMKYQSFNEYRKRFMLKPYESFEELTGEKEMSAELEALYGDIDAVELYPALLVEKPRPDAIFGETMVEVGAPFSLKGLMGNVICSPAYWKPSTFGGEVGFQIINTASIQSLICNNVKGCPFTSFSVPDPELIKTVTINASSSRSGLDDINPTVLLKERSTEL
The following applies: cited from earlier work.

In a further series the test system is PGE2 production. The following applies: ketorolac 0.45% compared to nepafenac 0.1% and bromfenac 0.09; cited from earlier work.
Setting [7] is: aqueous humor, vitreous humor and RPE-choroid, t=8 hours.
[8] abbreviates: for at least 8 hours following drug administration.
The mark [9] stands for this setting: for at least 10 hours following drug administration.
Where [10] appears, read: used for the estimate of percent inhibition.

Turning to `O=C(c1ccccc1)c1ccc2n1CCC2C(=O)O` (racemic) [ketorolac, (+/−)-5-Benzoyl-2,3-dihydro-1H-pyrrolizine-1-carboxylic acid: 2-amino-2(hydroxymethyl)-1,3-propanediol (1:1)], the concentration at 0 h worked out at 4.73 ± 1.46 ng/mL in series [1] (female, beagle, dog, plasma, 5.71 mg/eye, t=0, read-out: mean plasma level of ketorolac) and 1400 ± 1000 ng/g in series [1] (female, beagle, dog, retina, 5.71 mg/eye, immediately following the end of IOL replacement (t=0), intracameral OMS302 in BSS, read-out: Ketorolac concentration in the retina). This compound also had a concentration at 8 h in series [1] (female, beagle, dog, retina, 5.71 mg/eye, eight hours post-procedure, intracameral OMS302 in BSS) of 164 ± 39 ng/g. In series [1] (female, beagle, dog, retina, 5.71 mg/eye, ketorolac after intracameral OMS302, read-out: retinal half-life (converted)), the half-life was around 3.8 h. In series [1] (t≥2 hours), the “mean plasma level of ketorolac” value is reported as “undetectable”. In addition, the “inhibition of COX-1” value in the series on COX-1 [2] (setting [7]) is reported as above 90%. Also, the “inhibition of COX-1 in ocular tissues” value was “at least 90%” with COX-1 [2] (setting [8]) and “at least 85%” in the series on COX-1 [2] (setting [9]). For the same compound, the figures for the “estimated COX-1 inhibition” value in the series with COX-1 [2] (t=0) and in the series with COX-1 [2] (t=8 hours) were 99.3% and 98.4%, respectively. Further, the “mean percent inhibition of COX-1” value in the series on COX-1 [2] (retinal tissue, t=10 hours, standard deviation 0.36%) was 97.74%. The “inhibition of COX-2” value in the series with COX-2 [3] (setting [7]) is above 90%. The “inhibition of COX-2 in ocular tissues” value in the series on COX-2 [3] (setting [8]) is reported as “at least 90%”; with COX-2 [3] (setting [9]), “at least 85%”. In addition, the entries for the “estimated COX-2 inhibition” value with COX-2 [3] (t=0) and in the series on COX-2 [3] (t=8 hours) were 96.0% and 91.1%, respectively. Further, the “subjects with an undetectable concentration of ketorolac in the aqueous humor at the end of the surgical procedure” value in series [4] was 66.7%. Also, the results for the 50% inhibitory concentration (IC50) on COX-1 [5] (published value) and on COX-2 [6] (published value) were 20 nM and 120 nM, respectively. The Ki was 10 nM at COX-1 [5] (setting [10]) and 60 nM on COX-2 [6] (setting [10]). In addition, in the series with PGE2 production, the “inhibition of PGE2” value is listed as “greatest inhibition”.

Values taken from patent US12167999B2, “Anti-inflammatory and mydriatic intracameral solutions for inhibition of postoperative ocular inflammatory conditions” (Rayner Intraocular Lenses Limited, priority 2014, dated 2024).
